# Laboratory results taken from patent US12110279B2, “Triazolones, tetrazolones, and imidazolones, or their salts, and pharmaceutical compositions comprising the same” (Yuhan Corporation, priority 2021, dated 2024).
# Counter-ions that a name gives are not always drawn. Like-named read-outs stand apart in the source and are kept apart here.
# Columns and labels:
# Assay type in all cases: biochemical
# recombinant human VAP-1 = biological target: T1, recombinant human VAP-1 (Homo sapiens, UniProt Q16853); assay: Amplex Red HRP-coupled amine oxidase activity evaluation, recombinant human VAP-1; details: substrate 1 mM benzylamine; 30 min preincubation at 37° C.; read-out: Inhibitory Activity (IC50, nM) human VAP-1
# T1 construct: purchased R&D systems
# T1 sequence (Q16853 1-763): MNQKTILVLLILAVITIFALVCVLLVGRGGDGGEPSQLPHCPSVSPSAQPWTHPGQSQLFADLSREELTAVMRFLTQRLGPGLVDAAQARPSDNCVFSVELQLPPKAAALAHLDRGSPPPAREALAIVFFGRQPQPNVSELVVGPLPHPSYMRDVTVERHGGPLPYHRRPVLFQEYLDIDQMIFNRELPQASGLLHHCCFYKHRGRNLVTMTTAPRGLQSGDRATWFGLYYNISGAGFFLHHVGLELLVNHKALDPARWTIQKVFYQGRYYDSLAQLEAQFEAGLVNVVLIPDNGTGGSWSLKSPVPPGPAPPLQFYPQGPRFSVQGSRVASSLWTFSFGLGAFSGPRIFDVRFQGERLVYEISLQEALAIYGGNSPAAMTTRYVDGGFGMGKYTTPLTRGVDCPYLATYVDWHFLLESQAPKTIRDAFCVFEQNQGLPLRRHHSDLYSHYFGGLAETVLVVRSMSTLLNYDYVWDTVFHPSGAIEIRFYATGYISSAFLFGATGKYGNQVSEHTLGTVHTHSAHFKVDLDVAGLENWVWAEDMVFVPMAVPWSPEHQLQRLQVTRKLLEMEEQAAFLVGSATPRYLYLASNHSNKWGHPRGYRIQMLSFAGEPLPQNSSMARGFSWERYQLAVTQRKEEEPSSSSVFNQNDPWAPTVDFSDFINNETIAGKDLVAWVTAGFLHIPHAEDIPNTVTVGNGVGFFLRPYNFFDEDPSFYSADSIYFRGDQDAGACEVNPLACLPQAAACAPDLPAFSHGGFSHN
# How it was run: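 VAP-1 was preincubated with compound at 37° C for 30 minutes in 50 mM sodium phosphate, pH 7.4, then a mix of 200 uM Amplex Red, 1 mM benzylamine and 1 U/mL HRP was added.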
# [1] = biological target: T2, recombinant human MAO-A (monoamine oxidase-A) (Homo sapiens, UniProt P21397); assay: Amplex Red HRP-coupled amine oxidase activity evaluation, recombinant human MAO-A; details: substrate 0.5 mM tyramine; read-out: Inhibitory Activity (IC50, nM) MAO-A
# T2 construct: purchased Sigma-Aldrich
# T2 sequence (P21397 1-527): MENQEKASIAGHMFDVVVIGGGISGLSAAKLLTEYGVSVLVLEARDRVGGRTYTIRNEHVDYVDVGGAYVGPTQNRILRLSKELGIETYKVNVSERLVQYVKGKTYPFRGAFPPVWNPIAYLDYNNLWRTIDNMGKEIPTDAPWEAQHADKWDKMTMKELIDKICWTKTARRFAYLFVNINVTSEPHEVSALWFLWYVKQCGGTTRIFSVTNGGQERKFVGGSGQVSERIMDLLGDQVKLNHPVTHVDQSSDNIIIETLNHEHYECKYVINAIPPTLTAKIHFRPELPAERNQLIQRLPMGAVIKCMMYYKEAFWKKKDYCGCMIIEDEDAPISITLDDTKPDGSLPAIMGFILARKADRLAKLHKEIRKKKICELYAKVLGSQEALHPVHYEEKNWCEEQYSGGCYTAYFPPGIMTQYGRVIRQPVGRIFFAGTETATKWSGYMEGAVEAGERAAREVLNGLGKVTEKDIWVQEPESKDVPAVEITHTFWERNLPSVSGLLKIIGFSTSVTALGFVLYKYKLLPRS
# [2] = biological target: T3, recombinant human MAO-B (monoamine oxidase-B) (Homo sapiens, UniProt P27338); assay: Amplex Red HRP-coupled amine oxidase activity evaluation, recombinant human MAO-B; details: substrate 1 mM benzylamine; read-out: Inhibitory Activity (IC50, nM) MAO-B
# T3 construct: purchased Sigma-Aldrich
# T3 sequence (P27338 1-520): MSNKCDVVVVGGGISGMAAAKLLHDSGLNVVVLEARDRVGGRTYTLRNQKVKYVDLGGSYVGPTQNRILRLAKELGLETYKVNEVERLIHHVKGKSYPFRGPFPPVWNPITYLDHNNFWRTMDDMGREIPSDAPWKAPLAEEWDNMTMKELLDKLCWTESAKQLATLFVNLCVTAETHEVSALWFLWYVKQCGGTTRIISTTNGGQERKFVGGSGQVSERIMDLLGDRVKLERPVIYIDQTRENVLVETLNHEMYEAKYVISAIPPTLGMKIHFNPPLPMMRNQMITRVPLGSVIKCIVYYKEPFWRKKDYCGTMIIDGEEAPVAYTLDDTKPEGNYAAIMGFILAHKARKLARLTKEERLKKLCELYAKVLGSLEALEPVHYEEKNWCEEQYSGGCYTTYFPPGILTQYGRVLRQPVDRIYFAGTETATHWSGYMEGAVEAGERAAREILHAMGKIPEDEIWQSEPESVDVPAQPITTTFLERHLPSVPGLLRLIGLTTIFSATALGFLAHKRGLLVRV
# [3] = biological target: T4, recombinant human DAO (diamine oxidase) (Homo sapiens, UniProt P19801); assay: Amplex Red HRP-coupled amine oxidase activity evaluation, recombinant human DAO
# T4 construct: purchased R&D systems
# T4 sequence (P19801 20-751): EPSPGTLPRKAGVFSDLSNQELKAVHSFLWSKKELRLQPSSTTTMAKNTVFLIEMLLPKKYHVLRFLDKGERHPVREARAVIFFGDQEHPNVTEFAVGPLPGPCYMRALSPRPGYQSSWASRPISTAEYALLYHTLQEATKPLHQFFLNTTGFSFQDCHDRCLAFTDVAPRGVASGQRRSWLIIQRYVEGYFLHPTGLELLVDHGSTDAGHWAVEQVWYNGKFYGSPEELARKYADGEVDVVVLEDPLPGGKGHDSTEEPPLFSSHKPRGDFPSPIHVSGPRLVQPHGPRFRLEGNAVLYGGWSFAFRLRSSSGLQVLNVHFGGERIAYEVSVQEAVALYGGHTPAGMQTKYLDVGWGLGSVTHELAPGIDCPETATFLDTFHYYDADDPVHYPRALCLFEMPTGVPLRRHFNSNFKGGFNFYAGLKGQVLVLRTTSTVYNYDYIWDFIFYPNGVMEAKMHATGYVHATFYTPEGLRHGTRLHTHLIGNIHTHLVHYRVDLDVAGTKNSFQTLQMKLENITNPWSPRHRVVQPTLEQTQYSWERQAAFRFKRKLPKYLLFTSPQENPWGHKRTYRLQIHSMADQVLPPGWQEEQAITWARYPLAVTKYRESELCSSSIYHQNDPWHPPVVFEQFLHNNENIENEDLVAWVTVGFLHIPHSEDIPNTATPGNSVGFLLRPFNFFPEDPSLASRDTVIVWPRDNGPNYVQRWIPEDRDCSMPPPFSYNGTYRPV
# [4] = substrate 1 mM putrescine, read-out: Inhibitory Activity (IC50, nM) DAO
IC50 (recombinant human VAP-1) [nM],IC50 [1] [nM],IC50 [2] [nM],IC50 [3] [nM],"IC50 [3, 4] [nM]",Compound
1.5,> 100000,> 100000,,> 100000,"CCn1cc(-c2ccc(Cn3c(C)nn(CC(CN)=C(F)F)c3=O)s2)ccc1=O [Example 4, 5-[5-[[1-[2-(aminomethyl)-3,3-difluoro-allyl]-3-methyl-5-oxo-1,2,4-triazol-4-yl]methyl]-2-thienyl]-1-ethyl-pyridin-2-one trifluoroacetate]"
0.9,> 100000,> 100000,10,,"CCn1cc(-c2cccc(-n3nnn(CC(CN)=C(F)F)c3=O)c2)ccc1=O [Example 12, 5-[3-[4-[2-(aminomethyl)-3,3-difluoro-allyl]-5-oxo-tetrazol-1-yl]phenyl]-1-ethyl-pyridin-2-one di-trifluoroacetate]"
> 100,> 100000,> 100000,,8.3,"CCn1cc(-c2ccc(Cn3ccn(CC(CN)=C(F)F)c3=O)s2)ccc1=O [Example 50, 5-[5-[[3-[2-(aminomethyl)-3,3-difluoro-allyl]-2-oxo-imidazol-1-yl]methyl]-2-thienyl]-1-ethyl-pyridin-2-one trifluoroacetate]"
0.3,> 100000,3450,,25300,"CCn1cc(-c2csc(-n3nnn(CC(CN)=C(F)F)c3=O)c2)ccc1=O [Example 37, 5-[5-[4-[2-(aminomethyl)-3,3-difluoro-allyl]-5-oxo-tetrazol-1-yl]-3-thienyl]-1-ethyl-pyridin-2-one trifluoroacetate]"
> 100,> 100000,> 100000,,> 100000,"CCn1cc(-c2ccc(C)c(-n3nnn(CC(CN)=C(F)F)c3=O)n2)ccc1=O [Example 24, 5-[6-[4-[2-(aminomethyl)-3,3-difluoro-allyl]-5-oxo-tetrazol-1-yl]-5-methyl-2-pyridyl]-1-ethyl-pyridin-2-one trifluoroacetate]"

# More lines, now with the values behind:
Compound,IC50 (recombinant human VAP-1) [nM],IC50 [1] [nM],IC50 [2] [nM],IC50 [3] [nM],"IC50 [3, 4] [nM]"
"Cc1ccc(-c2cc(C)c3c(c2)CCC(=O)N3)nc1-n1nnn(CC(CN)=C(F)F)c1=O [Example 25, 6-[6-[4-[2-(aminomethyl)-3,3-difluoro-allyl]-5-oxo-tetrazol-1-yl]-5-methyl-2-pyridyl]-8-methyl-3,4-dihydro-1H-quinolin-2-one trifluoroacetate]",13,> 100000,> 100000,1110,
"CN1C(=O)CCc2cc(-c3cccc(Cn4nnn(CC(CN)=C(F)F)c4=O)c3)ccc21 [Example 33, 6-[3-[[4-[2-(aminomethyl)-3,3-difluoro-allyl]-5-oxo-tetrazol-1-yl]methyl]phenyl]-1-methyl-3,4-dihydroquinolin-2-one trifluoroacetate]",0.3,81400,3990,,122
"Cc1nn(CC(CN)=C(F)F)c(=O)n1Cc1ccc(-c2ccc(N3CCNCC3)cc2)s1 [Example 3, 2-[2-(aminomethyl)-3,3-difluoro-allyl]-5-methyl-4-[[5-(4-piperazin-1-ylphenyl)-2-thienyl]methyl]-1,2,4-triazol-3-one di-trifluoroacetate]",18,> 100000,> 100000,,> 100000
"Cc1cc(-c2ccc(Cn3nnn(CC(CN)=C(F)F)c3=O)s2)cc2c1NC(=O)CC2 [Example 45, 6-[5-[[4-[2-(aminomethyl)-3,3-difluoro-allyl]-5-oxo-tetrazol-1-yl]methyl]-2-thienyl]-8-methyl-3,4-dihydro-1H-quinolin-2-one trifluoroacetate]",0.6,49200,7210,,1870
"Cc1cc(-c2cccc(Cn3nnn(CC(CN)=C(F)F)c3=O)c2)cc2c1NC(=O)CC2 [Example 31, 6-[3-[[4-[2-(aminomethyl)-3,3-difluoro-allyl]-5-oxo-tetrazol-1-yl]methyl]phenyl]-8-methyl-3,4-dihydro-1H-quinolin-2-one trifluoroacetate]",0.6,82100,9000,,127
"Cc1cc(-c2cncc(-n3nnn(CC(CN)=C(F)F)c3=O)c2)cc2c1NC(=O)CC2 [Example 49, 6-[5-[4-[2-(aminomethyl)-3,3-difluoro-allyl]-5-oxo-tetrazol-1-yl]-3-pyridyl]-8-methyl-3,4-dihydro-1H-quinolin-2-one trifluoroacetate]",0.9,52200,7080,3.5,
"NCC(Cn1ccn(Cc2ccc(-c3ccn4ncnc4c3)s2)c1=O)=C(F)F [Example 53, 1-[2-(aminomethyl)-3,3-difluoro-allyl]-3-[[5-([1,2,4]triazolo[1,5-a]pyridin-7-yl)-2-thienyl]methyl]imidazol-2-one trifluoroacetate]",> 100,> 100000,80500,,38200
"CCn1cc(-c2ccc(Cn3c(C)nn(CC(CN)=C(F)F)c3=O)s2)cn1 [Example 1, 2-[2-(aminomethyl)-3,3-difluoro-allyl]-4-[[5-(1-ethylpyrazol-4-yl)-2-thienyl]methyl]-5-methyl-1,2,4-triazol-3-one trifluoroacetate]",1.7,> 100000,> 100000,,> 100000
"Cc1nn(CC(CN)=C(F)F)c(=O)n1Cc1ccc(-c2ccc(S(C)(=O)=O)cc2)s1 [Example 2, 2-[2-(aminomethyl)-3,3-difluoro-allyl]-5-methyl-4-[[5-(4-methylsulfonylphenyl)-2-thienyl]methyl]-1,2,4-triazol-3-one trifluoroacetate]",1.8,> 100000,> 100000,,> 100000
